According to patent US10301295B2, “Herbicidal compounds” (Syngenta Participations AG, priority 2014, dated 2019):
Read-outs that look alike come from different tables or passages of the source.

Key:
Assay type in all cases: in vivo
Lolium perenne (LOLPE) = test: Glasshouse assay for herbicidal activity, pre-/post-emergence (percentage phytotoxicity); conditions: Rate 250 g/ha, 100%=total damage, 0%=no damage; for pest or weed control at 250 g/ha: Lolium perenne
Experimental: (§1) Seeds of a variety of monocotyledonous and dicotyledonous test plants are sown in standard soil in pots. The plants are cultivated for one day (for pre-emergence) or for about 12 days (for post-emergence) under controlled conditions in a glasshouse (warm climate species at 24/18° C., cool climate species at 20/16° C., both at day/night; 16 hours light; 65% humidity). The test plants are then grown on, in a glasshouse (greenhouse) under controlled conditions (warm climate species at 24/18° C., cool climate species at 20/16° C., both at day/night; 16 hours light; 65% humidity) and are watered twice daily. 15 days after application of the test herbicide (15DAA) (for post-emergence), and 20 days after application of the test herbicide (20DAA) (for pre-emergence), the test plants are evaluated visually, and an assessed percentage phytotoxicity score is given for each herbicidal application on each plant species (with 100%=total damage to plant; 0%=no damage to plant). The plant species tested are as follows: Alopecurus myosuroides (ALOMY), Avena fatua (AVEFA), Lolium perenne (LOLPE), Echinochloa crus-galli (ECHCG).

Avena fatua (AVEFA) = test: as above; conditions: Rate 250 g/ha, 100%=total damage, 0%=no damage; for pest or weed control at 250 g/ha: Avena fatua
Experimental: as §1

[1] = tested on: Echinochloa crus-galli (ECHCG); test: as above; conditions: Echinochloa crus-galli, Rate 250 g/ha, 100%=total damage, 0%=no damage
Experimental: as §1

[2] = tested on: Alopecurus myosuroides (ALOMY); test: as above; conditions: Rate 250 g/ha, 100%=total damage, 0%=no damage; for pest or weed control at 250 g/ha: Alopecurus myosuroides
Experimental: as §1

wheat = test: Post-emergence herbicidal activity against cereal crops (wheat) +/- safener, crop selectivity; conditions: 100%=total damage to plant, 0%=no damage; for Post-emergence herbicidal activity against wheat (percentage phytotoxicity), +CQC: 250 g/ha, plus safener cloquintocet-mexyl (CQC) applied at 50 g/ha; for percent phytotoxicity (crop damage) to wheat at 250 g/ha: Triticum aestivum, 360 h, without safener, read-out: Post-emergence herbicidal activity against wheat (percentage phytotoxicity), Wheat - CQC
Experimental: as §1, with “plant).” for “plant). The plant species tested are as follows: Alopecurus myosuroides (ALOMY), Avena fatua (AVEFA), Lolium perenne (LOLPE), Echinochloa crus-galli (ECHCG).”

[3] = post-emergence, 360 h, post-emergence, visual assessment 15 DAA, read-out: Post-emergence herbicidal activity (percentage phytotoxicity), LOLPE POST
[4] = pre-emergence, 480 h, pre-emergence, visual assessment 20 DAA, read-out: Pre-emergence herbicidal activity (percentage phytotoxicity), LOLPE PRE
[5] = post-emergence, 360 h, post-emergence, visual assessment 15 DAA, read-out: Post-emergence herbicidal activity (percentage phytotoxicity), AVEFA POST
[6] = pre-emergence, 480 h, pre-emergence, visual assessment 20 DAA, read-out: Pre-emergence herbicidal activity (percentage phytotoxicity), AVEFA PRE
[7] = post-emergence, 360 h, post-emergence, visual assessment 15 DAA, read-out: Post-emergence herbicidal activity (percentage phytotoxicity), ECHCG POST
[8] = pre-emergence, 480 h, pre-emergence, visual assessment 20 DAA, read-out: Pre-emergence herbicidal activity (percentage phytotoxicity), ECHCG PRE
[9] = 360 h, post-emergence, visual assessment 15 DAA, read-out: Post-emergence herbicidal activity (percentage phytotoxicity), ALOMY POST
[10] = 480 h, pre-emergence, visual assessment 20 DAA, read-out: Pre-emergence herbicidal activity (percentage phytotoxicity), ALOMY PRE
[11] = post-emergence, visual assessment 15 DAA
[12] = pre-emergence, visual assessment 20 DAA

SMILES	pest or weed control at 250 g/ha (Lolium perenne (LOLPE); [3]) [%]	pest or weed control at 250 g/ha (Lolium perenne (LOLPE); [4]) [%]	pest or weed control at 250 g/ha (Avena fatua (AVEFA); [5]) [%]	pest or weed control at 250 g/ha (Avena fatua (AVEFA); [6]) [%]	pest or weed control at 250 g/ha [1, 7] [%]	pest or weed control at 250 g/ha [1, 8] [%]	pest or weed control at 250 g/ha [2, 9] [%]	pest or weed control at 250 g/ha [2, 10] [%]	Post-emergence herbicidal activity against wheat (percentage phytotoxicity), +CQC (wheat) [%]	percent phytotoxicity (crop damage) to wheat at 250 g/ha (wheat) [%]	Post-emergence herbicidal activity (percentage phytotoxicity), LOLPE POST (Lolium perenne (LOLPE); [11]) [%]	Pre-emergence herbicidal activity (percentage phytotoxicity), LOLPE PRE (Lolium perenne (LOLPE); [12]) [%]	Pre-emergence herbicidal activity (percentage phytotoxicity), AVEFA PRE (Avena fatua (AVEFA); [12]) [%]	Post-emergence herbicidal activity (percentage phytotoxicity), ALOMY POST [2, 11] [%]
Cc1cc(C)c(C2C(=O)CC(CCNC(=O)NC(=O)c3ccc(Cl)cc3F)C2=O)c(C)c1 (stereo not shown) [Compound A59]	100	80	90	30	90	100	90	70	80	90				
Cc1cc(C)c(C2C(=O)CC(CCNS(=O)(=O)c3ccc(F)c(Cl)c3)C2=O)c(C)c1 (stereo not shown) [Compound A75]	70	80	80	60	30	70	60	70	0	0				
Cc1cc(-n2cc(Cl)cn2)cc(C)c1C1C(=O)CC(CCNS(=O)(=O)c2ccc(Cl)cc2)C1=O (stereo not shown) [Compound A37]	0	0	0	0	30	0	0	0	10	20				
Cc1cc(C)c(C2C(=O)CC(CCNS(=O)(=O)c3ccccc3C(F)(F)F)C2=O)c(C)c1 (stereo not shown) [Compound A86]	30	60	0	20	30	60	50	20	0	20				
Cc1cc(C)c(C2C(=O)CC(CCNC(=O)NC(=O)c3ccc(F)cc3F)C2=O)c(C)c1 (stereo not shown) [Compound A53]	100	90	100	70	100	100	90	80	80	90				
COc1ccc(S(=O)(=O)NCCC2CC(=O)C(c3c(C)cc(C)cc3C)C2=O)cc1 (stereo not shown) [Compound A79]	60	70	60	10	40	50	30	30	0	30				
Cc1cc(C)c(C2C(=O)CC(CCNS(=O)(=O)c3ccccc3C)C2=O)c(C)c1 (stereo not shown) [Compound A87]	0	70	50	0	0	30	0	0	0	20				
Cc1cc(C)c(C2C(=O)CC(CCNC(=O)N(C)c3ccccn3)C2=O)c(C)c1 (stereo not shown) [Compound A11]	100	100	90	90	90	100	90	100	70	80				
Cc1cc(-n2cc(Cl)cn2)cc(C)c1C1C(=O)CC(CCNC(=O)NOC(C)(C)C)C1=O (stereo not shown) [Compound A25]	20	30	80	0	90	50	70	30	0	60				
Cc1cc(C)c(C2C(=O)CC(CCNC(=O)N(C)C)C2=O)c(C)c1 (stereo not shown) [Compound A31]	90	100	90	70	70	90	90	80	10	70				
Cc1cc(-c2ncccc2F)cc(C)c1C1C(=O)CC(CCNC(=O)Nc2ccccn2)C1=O.Cl (stereo not shown) [Compound A24]	90	80	100	70	100	90	60	10	70	80				
Cc1cc(C)c(C2C(=O)CC(CCNS(=O)(=O)c3ccc(F)cc3)C2=O)c(C)c1 (stereo not shown) [Compound A73]	60	70	60	0	30	30	40	70	10	0				
Cc1cc(C)c(C2C(=O)CC(CCNC(=O)Nc3ccc(Br)cn3)C2=O)c(C)c1.Cl (stereo not shown) [Compound A4]	100	80	100	70	90	60	90	80	50	90				
Cc1cc(C)c(C2C(=O)CC(CCN(C)C(=O)Nc3ccccn3)C2=O)c(C)c1 (stereo not shown) [Compound A17]									10	50	40	30	0	70
